The source of these data is publication PMC12485897, “Characterization of the thermophilic xylanase Fsa02490Xyn from the hyperthermophile Fervidibacter sacchari belonging to glycoside hydrolase family 10” (FEBS Open Bio, 2025).

In this test the test system is T1, Fsa02490Xyn.
T1 construct: TAT signal peptide removed (mature 430 residues, 48 kDa); N-terminal 6xHis tag, GB1 solubility tag and TEV site kept (~53 kDa expected); codon-optimized, pET21b, E. coli T7 Express; monomer
As to the kind of experiment: para-nitrophenol release, absorbance […] nm; Lineweaver-Burk plot. Type of test: biochemical, Fervidibacter sacchari. Particulars: pH 7.5, 90 °C, 11 min, 0.697 μM enzyme.

For orientation: Km means the substrate concentration at which the rate is half of its maximum.

Regarding `O=[N+]([O-])c1ccc(O[C@@H]2OC[C@@H](O[C@@H]3OC[C@@H](O)[C@H](O)[C@H]3O)[C@H](O)[C@H]2O)cc1` [pNPX2], the Km stood at 2380 µM.
